Data reported in patent publication US20090325964A1, “Piperazine Metabotropic Glutamate Receptor 5 (MGLUR5) Negative Allosteric Modulators For Anxiety/Depression” (Wyeth, priority 2008, published 2009).
Like-named read-outs stand apart in the source and are kept apart here.

Molecular target: T1, rat mGluR5 receptor (Rattus norvegicus, UniProt P31424)
T1 construct: expressed in transfected cells; host or cells: HEK-293
Assay: [3H]-MPEP displacement binding assay, HEK-293 cell membranes expressing rat mGluR5
Conditions: for Ki: read-out: Median Ki
Experimental: MGluR5 expressing HEK-293 cells were scraped off a plate, transferred to centrifuge tubes and washed twice by centrifugation (2000 rpm for 10 minutes, at 4° C.) in buffer (50 mM Tris pH 7.5). The resulting pellets were aliquoted and stored at minus 80° C. On the day of assay, the cells were thawed on ice and re-suspended in buffer. The binding assay was performed in a 96 well microtiter plate in a total volume of […]. Non-specific binding was determined in the presence of 10 μM MPEP. The binding reaction included a final radioligand [^3H]-MPEP concentration of 4 nM and 12-25 μg membrane protein per well. Following a 60 minute incubation at room temperature, the reaction was terminated by the addition of ice cold buffer and rapid filtration through a GF/B filter that had been presoaked for 30 minutes in 0.5% PEI. Compounds were initially tested in a single point assay to determine percent inhibition at 10 μM.
Percent inhibition and Ki values were generated by GraphPad Prism and Excel Fit. IC50 values were calculated using GraphPad by fitting to a 1 or 2 site-binding model.
where [L] is the concentration of free radioligand and Kd is the dissociation constant of radioligand for the receptor.

[1] = 1 h, single point, @ 10 μm compound, Table 1A, read-out: PCT INHIB (%) @ 10 μm
[2] = @ 10 μM compound, Biological Activity, Table 2A, read-out: PCT INHIB (%) @ 10 μM

T1 sequence (P31424 21-1203): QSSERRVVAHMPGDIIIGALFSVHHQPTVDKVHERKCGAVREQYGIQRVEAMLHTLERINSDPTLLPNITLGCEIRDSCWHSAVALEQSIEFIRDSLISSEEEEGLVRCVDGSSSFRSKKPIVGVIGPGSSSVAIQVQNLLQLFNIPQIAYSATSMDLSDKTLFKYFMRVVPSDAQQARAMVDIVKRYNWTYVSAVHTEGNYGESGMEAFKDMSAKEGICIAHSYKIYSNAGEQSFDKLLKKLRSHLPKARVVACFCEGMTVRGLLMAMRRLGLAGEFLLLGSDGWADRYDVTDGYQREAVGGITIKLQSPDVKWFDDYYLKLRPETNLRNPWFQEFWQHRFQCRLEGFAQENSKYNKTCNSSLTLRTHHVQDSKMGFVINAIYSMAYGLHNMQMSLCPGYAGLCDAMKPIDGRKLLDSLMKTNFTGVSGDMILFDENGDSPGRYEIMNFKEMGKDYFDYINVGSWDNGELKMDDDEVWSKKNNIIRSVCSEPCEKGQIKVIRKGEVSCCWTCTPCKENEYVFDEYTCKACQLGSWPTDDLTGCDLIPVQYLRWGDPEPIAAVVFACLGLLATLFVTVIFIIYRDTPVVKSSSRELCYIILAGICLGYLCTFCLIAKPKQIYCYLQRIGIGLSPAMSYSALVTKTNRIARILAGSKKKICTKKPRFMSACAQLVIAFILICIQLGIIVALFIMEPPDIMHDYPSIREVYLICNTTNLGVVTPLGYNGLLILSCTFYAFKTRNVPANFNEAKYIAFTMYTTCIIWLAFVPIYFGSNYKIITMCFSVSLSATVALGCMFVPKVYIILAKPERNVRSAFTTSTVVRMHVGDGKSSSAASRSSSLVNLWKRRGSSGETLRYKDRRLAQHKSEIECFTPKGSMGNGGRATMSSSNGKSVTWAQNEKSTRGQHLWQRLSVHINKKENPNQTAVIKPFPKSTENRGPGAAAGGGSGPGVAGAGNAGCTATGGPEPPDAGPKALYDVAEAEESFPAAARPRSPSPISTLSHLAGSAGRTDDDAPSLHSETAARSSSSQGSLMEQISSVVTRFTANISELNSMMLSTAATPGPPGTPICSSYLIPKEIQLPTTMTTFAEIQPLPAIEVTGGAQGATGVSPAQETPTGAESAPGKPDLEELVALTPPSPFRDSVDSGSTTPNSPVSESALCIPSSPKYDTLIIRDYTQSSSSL

Compound | Ki [nM] | inhibition at 10 µM [2] [%] | other results
COc1ccc(C(=O)N2CCN(c3cnccn3)CC2)cc1C#Cc1cccc(C(F)(F)F)c1 [Compound 54, 2-[4-(4-methoxy-3-{[3-(trifluoromethyl)phenyl]ethynyl}benzoyl)piperazin-1-yl]pyrazine] | 109 |  | inhibition at 10 µM [1]: 96%
Cc1ccc(C(=O)N2CCN(c3cnccn3)CC2)cc1C#CC1=CCCCC1 [Compound 56, 2-{4-[3-(cyclohex-1-en-1-ylethynyl)-4-methylbenzoyl]piperazin-1-yl}pyrazine] | 1890 |  | inhibition at 10 µM [1]: 70%
Cc1ccc(C(=O)N2CCN(c3cnccn3)CC2)cc1C#CCc1ccccc1 [Compound 57, 2-{4-[4-methyl-3-(3-phenylprop-1-yn-1-yl)benzoyl]piperazin-1-yl}pyrazine] | 363 |  | inhibition at 10 µM [1]: 87%
COc1cccc(C#Cc2cc(C(=O)N3CCN(c4cnccn4)CC3)ccc2C)c1 [Compound 58, 2-(4-{3-[(3-methoxyphenyl)ethynyl]-4-methylbenzoyl}piperazin-1-yl)pyrazine] | 322 |  | inhibition at 10 µM [1]: 93%
Cc1cccc(C#Cc2cc(C(=O)N3CCN(c4cnccn4)CC3)ccc2C)c1 [Compound 59, 2-(4-{4-methyl-3-[(3-methylphenyl)ethynyl]benzoyl}piperazin-1-yl)pyrazine] | 62.5 |  | inhibition at 10 µM [1]: 100%
Cc1ccc(C(=O)N2CCN(c3cnccn3)CC2)cc1C#Cc1cccc(C(F)(F)F)c1 [Compound 60, 2-[4-(4-methyl-3-{[3-(trifluoromethyl)phenyl]ethynyl}benzoyl)piperazin-1-yl]pyrazine] | 749 |  | inhibition at 10 µM [1]: 85%
COc1ccc(C(=O)N2CCN(c3cnccn3)CC2)cc1C#Cc1cccc(F)c1 [Compound 61, 2-(4-{3-[(3-fluorophenyl)ethynyl]-4-methoxybenzoyl}piperazin-1-yl)pyrazine] | 21.7 |  | 
Cc1ccc(C(=O)N2CCN(c3cnccn3)CC2)cc1C#Cc1cccc(F)c1 [Compound 62, 2-(4-{3-[(3-fluorophenyl)ethynyl]-4-methylbenzoyl}piperazin-1-yl)pyrazine] | 121 |  | 
COc1ccc(C(=O)N2CCN(c3ccccn3)CC2)cc1C#Cc1cccc(F)c1 [Compound 63, 1-{3-[(3-fluorophenyl)ethynyl]-4-methoxybenzoyl}-4-pyridin-2-ylpiperazine] | 7.34 |  | 
Cc1ccc(C(=O)N2CCN(c3ccccn3)CC2)cc1C#Cc1cccc(F)c1 [Compound 64, 1-{3-[(3-fluorophenyl)ethynyl]-4-methylbenzoyl}-4-pyridin-2-ylpiperazine] | 131 |  | 
COc1ccc(C(=O)N2CCN(c3cnccn3)CC2)cc1C#Cc1cccc(Cl)c1 [Compound 65, 2-(4-{3-[(3-chlorophenyl)ethynyl]-4-methoxybenzoyl}piperazin-1-yl)pyrazine] | 2.11 |  | 
COc1ccc(C(=O)N2CCN(c3cnccn3)CC2)cc1C#Cc1ccccn1 [Compound 66, 2-{4-[4-methoxy-3-(pyridin-2-ylethynyl)benzoyl]piperazin-1-yl}pyrazine] | 21.2 |  | 
Cc1ccc(C(=O)N2CCN(c3cnccn3)CC2)cc1C#Cc1cccc(Cl)c1 [Compound 67, 2-(4-{3-[(3-chlorophenyl)ethynyl]-4-methylbenzoyl}piperazin-1-yl)pyrazine] | 49.1 |  | 
Cc1ccc(C(=O)N2CCN(c3cnccn3)CC2)cc1C#Cc1ccccn1 [Compound 68, 2-{4-[4-methyl-3-(pyridin-2-ylethynyl)benzoyl]piperazin-1-yl}pyrazine] | 8.84 |  | 
CN1CCN(C(=O)c2cccc(C#Cc3ccccc3)c2)CC1 [Compound 70, 1-methyl-4-[3-(phenylethynyl)benzoyl]piperazine] |  | 0 | 
COc1ccc(N2CCN(C(=O)c3cccc(C#Cc4ccccc4)c3)CC2)cc1 [Compound 71, 1-(4-methoxyphenyl)-4-[3-(phenylethynyl)benzoyl]piperazine] |  | 40 | 
O=C(c1cccc(C#Cc2ccccc2)c1)N1CCN(c2ccc(Cl)cc2)CC1 [Compound 72, 1-(4-chlorophenyl)-4-[3-(phenylethynyl)benzoyl]piperazine] |  | 30 | 
Cc1ccc(N2CCN(C(=O)c3cccc(C#Cc4ccccc4)c3)CC2)cc1 [Compound 73, 1-(4-methylphenyl)-4-[3-(phenylethynyl)benzoyl]piperazine] |  | 0 | 
CC(=O)c1ccc(N2CCN(C(=O)c3cccc(C#Cc4ccccc4)c3)CC2)cc1 [Compound 74, 1-(4-{-[3-(phenylethynyl)benzoyl]piperazine-1-yl}phenyl)ethanone] |  |  | PCT INHIB (%) @ 10 μM (@ 10 μM compound, Biological Activity, Table 2A): 20%
O=C(c1cccc(C#Cc2ccccc2)c1)N1CCN(c2ccc([N+](=O)[O-])cc2)CC1 [Compound 75, 1-(4-nitrophenyl)-4-[3-(phenylethynyl)benzoyl]piperazine] |  | 20 | 

Compound | Ki [nM] | inhibition at 10 µM [2] [%] | other results
O=C(c1cccc(C#Cc2ccccc2)c1)N1CCN(c2ccccc2)CC1 [Compound 76, 1-phenyl-4-[3-(phenylethynyl)benzoyl]piperazine] |  | 86 | Ki (Biological Activity, Table 2A): 1290 nM
O=C(c1cccc(C#Cc2ccccc2)c1)N1CCN(c2ccc(C(F)(F)F)cc2)CC1 [Compound 77, 1-[3-(phenylethynyl)benzoyl]-4-[4-(trifluoromethyl)phenyl]piperazine] |  | 0 | 
Cc1cccc(C)c1N1CCN(C(=O)c2cccc(C#Cc3ccccc3)c2)CC1 [Compound 78, 1-(2,6-dimethylphenyl)-4-[3-(phenylethynyl)benzoyl]piperazine] |  | 53 | Ki (Biological Activity, Table 2A): > 10000 nM
O=C(c1cccc(C#Cc2ccccc2)c1)N1CCN(c2ccc(F)cc2)CC1 [Compound 79, 1-(4-fluorophenyl)-4-[3-(phenylethynyl)benzoyl]piperazine] |  | 28 | 
CSc1ccccc1N1CCN(C(=O)c2cccc(C#Cc3ccccc3)c2)CC1 [Compound 80, 1-[2-(methylthio)phenyl]-4-[3-(phenylethynyl)benzoyl]piperazine] |  | 24 | 
COc1cccc(N2CCN(C(=O)c3cccc(C#Cc4ccccc4)c3)CC2)c1 [Compound 81, 1-(3-methoxyphenyl)-4-[3-(phenylethynyl)benzoyl]piperazine] |  | 78 | Ki (Biological Activity, Table 2A): 3390 nM
O=C(c1cccc(C#Cc2ccccc2)c1)N1CCN(c2cccc(Cl)c2)CC1 [Compound 82, 1-(3-chlorophenyl)-4-[3-(phenylethynyl)benzoyl]piperazine] |  | 58 | Ki (Biological Activity, Table 2A): 2770 nM
O=C(c1cccc(C#Cc2ccccc2)c1)N1CCN(c2ccc(O)cc2)CC1 [Compound 83, 4-{4-[3-(phenylethynyl)benzoyl]piperazin-1-yl}phenol] |  | 74 | Ki (Biological Activity, Table 2A): > 10000 nM
O=C(c1cccc(C#Cc2ccccc2)c1)N1CCN(c2cc(Cl)cc(Cl)c2)CC1 [Compound 84, 1-(3,5-dichlorophenyl)-4-[3-(phenylethynyl)benzoyl]piperazine] |  | 0 | 
O=C(c1cccc(C#Cc2ccccc2)c1)N1CCN(c2cccc(C(F)(F)F)c2)CC1 [Compound 85, 1-[3-(phenylethynyl)benzoyl]-4-[3-(trifluoromethyl)phenyl]piperazine] |  | 32 | 
O=C(c1cccc(C#Cc2ccccc2)c1)N1CCN(c2cnccn2)CC1 [Compound 86, 2-{4-[3-(phenylethynyl)benzoyl]piperazin-1-yl}pyrazine] |  | 85 | 
O=C(c1cncc(C#Cc2ccccc2)c1)N1CCN(c2ccccn2)CC1 [Compound 87, 1-{[5-(phenylethynyl)pyridin-3-yl]carbonyl}-4-pyridin-2-ylpiperazine] |  | 56 | Ki (Biological Activity, Table 2A): 3310 nM
O=C(c1ccc(F)c(C#Cc2ccccc2)c1)N1CCN(c2ccccn2)CC1 [Compound 89, 1-[4-fluoro-3-(phenylethynyl)benzoyl]-4-pyridin-2-ylpiperazine] |  | 51 | Ki (Biological Activity, Table 2A): 50 nM
Cc1c(C#Cc2ccccc2)cccc1C(=O)N1CCN(c2ccccn2)CC1 [Compound 91, 1-[2-methyl-3-(phenylethynyl)benzoyl]-4-pyridin-2-ylpiperazine] |  | 18 | 
O=C(c1cccc(C#Cc2cccnc2)c1)N1CCN(c2ccccn2)CC1 [Compound 93, 1-pyridin-2-yl-4-[3-(pyridin-3-ylethynyl)benzoyl]piperazine] |  | 26 | 
O=C(c1cccc(C#Cc2ccccn2)c1)N1CCN(c2cnccn2)CC1 [Compound 94, 2-{4-[3-(pyridin-2-ylethynyl)benzoyl]piperazin-1-yl}pyrazine] |  | 79 | Ki (Biological Activity, Table 2A): 395 nM
N#Cc1ccc(N2CCN(C(=O)c3cccc(C#Cc4ccccn4)c3)CC2)nc1 [Compound 96, 6-{4-[3-(pyridin-2-ylethynyl)benzoyl]piperazin-1-yl}nicotinonitrile] |  | 50 | Ki (Biological Activity, Table 2A): 3240 nM
O=C(c1cccc(C#Cc2ccccn2)c1)N1CCN(c2nnn[nH]2)CC1 [Compound 97, 1-[3-(pyridin-2-ylethynyl)benzoyl]-4-(1H-tetrazol-5-yl)piperazine] |  | 0 | 
CC1CN(c2ccccn2)CCN1C(=O)c1cccc(C#Cc2ccccn2)c1 (stereo not shown) [Compound 98, 2-methyl-4-pyridin-2-yl-1-[3-(pyridin-2-ylethynyl)benzoyl]piperazine] |  | 72 | Ki (Biological Activity, Table 2A): 679 nM
